{"source": "patent US8415501B2", "about": "“Methods and compositions for making and using polymorphs of cinacalcet” (Amgen, Inc., priority 2006, dated 2013)", "key": {"[1]": {"assay": "solid-form stability of cinacalcet HCl polymorphs", "source_text": "The present invention describes an additional third form of the compound. […] The present invention is directed to a novel polymorph Form III."}, "[2]": {"test_system": "patients with parathyroid carcinoma", "conditions": "cited from earlier work"}, "cytochrome P450 2D6": {"target": "cytochrome P450 2D6 (Homo sapiens, UniProt P10635)", "sequence (P10635 whole entry)": "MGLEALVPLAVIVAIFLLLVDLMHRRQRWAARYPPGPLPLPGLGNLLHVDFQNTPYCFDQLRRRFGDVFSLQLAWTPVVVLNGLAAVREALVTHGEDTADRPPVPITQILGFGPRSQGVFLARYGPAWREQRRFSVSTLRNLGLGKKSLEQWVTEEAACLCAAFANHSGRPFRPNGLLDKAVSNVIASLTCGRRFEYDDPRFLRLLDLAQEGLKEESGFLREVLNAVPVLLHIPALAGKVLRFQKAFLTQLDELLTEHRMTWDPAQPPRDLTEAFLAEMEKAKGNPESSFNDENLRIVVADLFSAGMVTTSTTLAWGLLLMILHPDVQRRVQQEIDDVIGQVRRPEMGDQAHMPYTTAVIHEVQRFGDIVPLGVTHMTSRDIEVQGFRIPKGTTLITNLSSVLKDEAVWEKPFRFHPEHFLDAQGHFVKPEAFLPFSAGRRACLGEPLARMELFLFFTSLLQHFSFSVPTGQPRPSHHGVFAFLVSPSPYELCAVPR", "conditions": "cited from earlier work"}}, "data": [{"smiles": "C[C@@H](NCCCc1cccc(C(F)(F)F)c1)c1cccc2ccccc12.Cl", "note": "[Form III, N-[1-(R)-(−)-(1-naphthyl)ethyl]-3-[3-(trifluoromethyl)phenyl]-1-aminopropane hydrochloride]", "values": [{"measurement": "thermodynamic stability of the crystalline form", "setting": "[1]; solvent systems and crystallization methods, XRPD analysis", "result": "metastable form"}]}, {"smiles": "C[C@@H](NCCCc1cccc(C(F)(F)F)c1)c1cccc2ccccc12.Cl", "note": "[Form II]", "values": [{"measurement": "stability of the crystalline form", "setting": "[1]; room temperature", "result": "unstable at room temperature"}]}, {"smiles": "C[C@@H](NCCCc1cccc(C(F)(F)F)c1)c1cccc2ccccc12.Cl", "note": "[Sensipar®, N-[1-(R)-(−)-(1-naphthyl)ethyl]-3-[3-(trifluoromethyl)phenyl]-1-aminopropane hydrochloride]", "values": [{"measurement": "effect on calcium levels", "setting": "[2]", "result": "reduce high levels of calcium"}, {"measurement": "metabolizing enzyme", "setting": "cytochrome P450 2D6", "result": "metabolized by cytochrome P450 2D6"}]}]}
